SMILES strings stand for the structures. ± gives the expanded uncertainty stated by the source.

The conditions of this data set: Liquid, Manometric method.

`O` [water]: the “vapor or sublimation pressure” value (287.15 K) stood at 1.64 ± 0.21 kPa; the “vapor or sublimation pressure” value (296.35 K) came out at 2.81 ± 0.22 kPa; the “vapor or sublimation pressure” value (305.35 K) stood at 4.74 ± 0.22 kPa; the “vapor or sublimation pressure” value (313.45 K) is listed as 7.51 ± 0.23 kPa; the “vapor or sublimation pressure” value (323.05 K) stood at 12.26 ± 0.26 kPa; the “vapor or sublimation pressure” value (332.95 K) stood at 19.69 ± 0.32 kPa. The “vapor or sublimation pressure” value came to 30.94 ± 0.42 kPa (343.05 K), 46.73 ± 0.57 kPa (352.85 K), 69.75 ± 0.8 kPa (363.05 K) and 100.32 ± 1.1 kPa (372.85 K).
For the molecule `OCC(F)(F)F` [2,2,2-trifluoroethanol], the “vapor or sublimation pressure” value is, setting by setting: (283.15 K) 3.96 ± 0.22 kPa; (293.15 K) 7.25 ± 0.22 kPa; (303.15 K) 12.82 ± 0.23 kPa; (313.15 K) 21.83 ± 0.26 kPa; (323.15 K) 36.1 ± 0.3 kPa; (333.15 K) 57.08 ± 0.38 kPa. Moreover, the “vapor or sublimation pressure” value is on record as 87.31 ± 0.46 kPa (343.15 K) and 100.8 ± 0.52 kPa (346.65 K).

The vapor or sublimation pressure is the pressure of vapour in equilibrium with the condensed phase.
